± gives the standard deviation of the averaged measurements.
Columns and labels:
YM155 [1] = compound: T1, COCC[n+]1c2c(n(Cc3cnccn3)c1C)C(=O)c1ccccc1C2=O [YM155]; experiment: area under dose-response curve of surviving fraction (unscaled, Aref=0) (surviving fraction x log10(nM)); higher = more resistant; conditions: exposure time: 5 days; dose range 0.5-1000 nM
Outline: (§1)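 Each tumour cell line was screened three times in 384-well plates, receiving eight inhibitor concentrations from 0.5 to 1000 nM for five days. CellTiter-Glo luminescence gave viability, normalised to DMSO-only wells. Using the drc R package, surviving fractions were fitted with 3-parameter logistic dose-response curves, and the unscaled activity area over log10 dose (Aref = 0) was taken as the area under the curve.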

OSI-906 [2] = compound: T2, C[C@]1(O)C[C@@H](c2nc(-c3ccc4ccc(-c5ccccc5)nc4c3)c3c(N)nccn32)C1 [OSI-906]; experiment: as above; conditions: exposure time: 5 days; dose range 0.5-1000 nM
Outline: as §1

[3] = compound: CC(=O)c1c(C)c2cnc(Nc3ccc(N4CCNCC4)cn3)nc2n(C2CCCC2)c1=O; experiment: as above; conditions: exposure time: 5 days; dose range 0.5-1000 nM
Outline: as §1

GEFITINIB [4] = compound: T3, COc1cc2ncnc(Nc3ccc(F)c(Cl)c3)c2cc1OCCCN1CCOCC1 [GEFITINIB]; experiment: as above; conditions: exposure time: 5 days; dose range 0.5-1000 nM
Outline: as §1

CAMPTOTHECIN [5] = compound: T4, CC[C@@]1(O)C(=O)OCc2c1cc1n(c2=O)Cc2cc3ccccc3nc2-1 [CAMPTOTHECIN]; experiment: as above; conditions: exposure time: 5 days; dose range 0.5-1000 nM
Outline: as §1

PACLITAXEL [6] = compound: T5, CC(=O)O[C@H]1C(=O)[C@@]2(C)[C@H]([C@H](OC(=O)c3ccccc3)[C@]3(O)C[C@H](OC(=O)[C@H](O)[C@@H](NC(=O)c4ccccc4)c4ccccc4)C(C)=C1C3(C)C)[C@]1(OC(C)=O)CO[C@@H]1C[C@@H]2O [PACLITAXEL]; experiment: as above; conditions: exposure time: 5 days; dose range 0.5-1000 nM
Outline: as §1

[7] = compound: CC(=O)NCC(=O)N1[C@@H]2CC[C@H]1c1ccc(Nc3ncc(C(F)(F)F)c(NC4CCC4)n3)cc12; experiment: as above; conditions: exposure time: 5 days; dose range 0.5-1000 nM
Outline: as §1

CARBOPLATIN [8] = compound: T6, O=C(O)C1(C(=O)O)CCC1.[NH2-].[NH2-].[Pt+2] [CARBOPLATIN]; experiment: as above; conditions: exposure time: 5 days; dose range 0.5-1000 nM
Outline: as §1

CELECOXIB [9] = compound: T7, Cc1ccc(-c2cc(C(F)(F)F)nn2-c2ccc(S(N)(=O)=O)cc2)cc1 [CELECOXIB]; experiment: as above; conditions: exposure time: 5 days; dose range 0.5-1000 nM
Outline: as §1

YM155 [10] = compound: T1, YM155; experiment: surviving fraction relative to DMSO-only wells; higher = less growth inhibition; conditions: exposure time: 5 days
Outline: (§2)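 Inhibitors at 0.5, 1, 5, 10, 50, 100, 500 and 1000 nM were applied continuously for five days to tumour cell lines seeded in log phase at 250–500 cells per well in 384-well plates 24 hours earlier. Viability was measured by CellTiter-Glo luminescence and expressed as surviving fraction relative to the median of DMSO-only wells. Luminescence was taken after 10 minutes at room temperature.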

OSI-906 [11] = compound: T2, OSI-906; experiment: as above; conditions: exposure time: 5 days
Outline: as §2

[12] = compound: CC(=O)c1c(C)c2cnc(Nc3ccc(N4CCNCC4)cn3)nc2n(C2CCCC2)c1=O; experiment: as above; conditions: exposure time: 5 days
Outline: as §2

GEFITINIB [13] = compound: T3, GEFITINIB; experiment: as above; conditions: exposure time: 5 days
Outline: as §2

CAMPTOTHECIN [14] = compound: T4, CAMPTOTHECIN; experiment: as above; conditions: exposure time: 5 days
Outline: as §2

PACLITAXEL [15] = compound: T5, PACLITAXEL; experiment: as above; conditions: exposure time: 5 days
Outline: as §2

[16] = compound: CC(=O)NCC(=O)N1[C@@H]2CC[C@H]1c1ccc(Nc3ncc(C(F)(F)F)c(NC4CCC4)n3)cc12; experiment: as above; conditions: exposure time: 5 days
Outline: as §2

CARBOPLATIN [17] = compound: T6, CARBOPLATIN; experiment: as above; conditions: exposure time: 5 days
Outline: as §2

CELECOXIB [18] = compound: T7, CELECOXIB; experiment: as above; conditions: exposure time: 5 days
Outline: as §2

COLO320DM LARGE INTESTINE
area under dose-response curve (YM155 [1]): 2.37 | area under dose-response curve (OSI-906 [2]): 3 | area under dose-response curve [3]: 3.25 | area under dose-response curve (GEFITINIB [4]): 4.07 | area under dose-response curve (CAMPTOTHECIN [5]): 1.14 | area under dose-response curve (PACLITAXEL [6]): 2.1 | area under dose-response curve [7]: 2.35 | area under dose-response curve (CARBOPLATIN [8]): 4.1 | area under dose-response curve (CELECOXIB [9]): 3.75 | surviving fraction (YM155 [10]; 0.5 nM): 0.981 ± 0.051 | surviving fraction (YM155 [10]; 1 nM): 1.01 ± 0.063 | surviving fraction (YM155 [10]; 5 nM): 0.994 ± 0.087 | surviving fraction (YM155 [10]; 10 nM): 1.03 ± 0.17 | surviving fraction (YM155 [10]; 50 nM): 0.708 ± 0.059 | surviving fraction (YM155 [10]; 100 nM): 0.528 ± 0.057 | surviving fraction (YM155 [10]; 500 nM): 0.231 ± 0.013 | surviving fraction (YM155 [10]; 1000 nM): 0.201 ± 0.012 | surviving fraction (OSI-906 [11]; 0.5 nM): 1.03 ± 0.099 | surviving fraction (OSI-906 [11]; 1 nM): 1.09 ± 0.065 | surviving fraction (OSI-906 [11]; 5 nM): 1.09 ± 0.023 | surviving fraction (OSI-906 [11]; 10 nM): 1.01 ± 0.049 | surviving fraction (OSI-906 [11]; 50 nM): 0.875 ± 0.04 | surviving fraction (OSI-906 [11]; 100 nM): 0.818 ± 0.076 | surviving fraction (OSI-906 [11]; 500 nM): 0.572 ± 0.048 | surviving fraction (OSI-906 [11]; 1000 nM): 0.528 ± 0.032 | surviving fraction ([12]; 0.5 nM): 1.084 ± 0.0093 | surviving fraction ([12]; 1 nM): 1.08 ± 0.04 | surviving fraction ([12]; 5 nM): 1.12 ± 0.038 | surviving fraction ([12]; 10 nM): 1.1 ± 0.039 | surviving fraction ([12]; 50 nM): 1.08 ± 0.065 | surviving fraction ([12]; 100 nM): 1.05 ± 0.048 | surviving fraction ([12]; 500 nM): 0.78 ± 0.061 | surviving fraction ([12]; 1000 nM): 0.735 ± 0.039 | surviving fraction (GEFITINIB [13]; 0.5 nM): 1.17 ± 0.07 | surviving fraction (GEFITINIB [13]; 1 nM): 1.21 ± 0.051 | surviving fraction (GEFITINIB [13]; 5 nM): 1.13 ± 0.081 | surviving fraction (GEFITINIB [13]; 10 nM): 1.1 ± 0.026 | surviving fraction (GEFITINIB [13]; 50 nM): 1.14 ± 0.085 | surviving fraction (GEFITINIB [13]; 100 nM): 1.2 ± 0.1 | surviving fraction (GEFITINIB [13]; 500 nM): 1.05 ± 0.14 | surviving fraction (GEFITINIB [13]; 1000 nM): 1.06 ± 0.094 | surviving fraction (CAMPTOTHECIN [14]; 0.5 nM): 0.381 ± 0.011 | surviving fraction (CAMPTOTHECIN [14]; 1 nM): 0.929 ± 0.12 | surviving fraction (CAMPTOTHECIN [14]; 5 nM): 0.458 ± 0.026 | surviving fraction (CAMPTOTHECIN [14]; 10 nM): 0.38 ± 0.023 | surviving fraction (CAMPTOTHECIN [14]; 50 nM): 0.137 ± 0.003 | surviving fraction (CAMPTOTHECIN [14]; 100 nM): 0.263 ± 0.0072 | surviving fraction (CAMPTOTHECIN [14]; 500 nM): 0.138 ± 0.0052 | surviving fraction (CAMPTOTHECIN [14]; 1000 nM): 0.127 ± 0.0051 | surviving fraction (PACLITAXEL [15]; 0.5 nM): 1.12 ± 0.1 | surviving fraction (PACLITAXEL [15]; 1 nM): 1.1 ± 0.091 | surviving fraction (PACLITAXEL [15]; 5 nM): 1.1 ± 0.018 | surviving fraction (PACLITAXEL [15]; 10 nM): 1.03 ± 0.18 | surviving fraction (PACLITAXEL [15]; 50 nM): 0.525 ± 0.033 | surviving fraction (PACLITAXEL [15]; 100 nM): 0.292 ± 0.014 | surviving fraction (PACLITAXEL [15]; 500 nM): 0.161 ± 0.015 | surviving fraction (PACLITAXEL [15]; 1000 nM): 0.116 ± 0.0099 | surviving fraction ([16]; 0.5 nM): 1.1 ± 0.058 | surviving fraction ([16]; 1 nM): 1.09 ± 0.077 | surviving fraction ([16]; 5 nM): 0.979 ± 0.086 | surviving fraction ([16]; 10 nM): 0.954 ± 0.035 | surviving fraction ([16]; 50 nM): 0.573 ± 0.087 | surviving fraction ([16]; 100 nM): 0.559 ± 0.02 | surviving fraction ([16]; 500 nM): 0.283 ± 0.0029 | surviving fraction ([16]; 1000 nM): 0.237 ± 0.015 | surviving fraction (CARBOPLATIN [17]; 0.5 nM): 1.12 ± 0.013 | surviving fraction (CARBOPLATIN [17]; 1 nM): 1.14 ± 0.021 | surviving fraction (CARBOPLATIN [17]; 5 nM): 1.1 ± 0.045 | surviving fraction (CARBOPLATIN [17]; 10 nM): 1.06 ± 0.059 | surviving fraction (CARBOPLATIN [17]; 50 nM): 1.2 ± 0.057 | surviving fraction (CARBOPLATIN [17]; 100 nM): 1.2 ± 0.15 | surviving fraction (CARBOPLATIN [17]; 500 nM): 1.15 ± 0.094 | surviving fraction (CARBOPLATIN [17]; 1000 nM): 1.14 ± 0.1 | surviving fraction (CELECOXIB [18]; 0.5 nM): 1.12 ± 0.18 | surviving fraction (CELECOXIB [18]; 1 nM): 1.12 ± 0.17 | surviving fraction (CELECOXIB [18]; 5 nM): 1.15 ± 0.075 | surviving fraction (CELECOXIB [18]; 10 nM): 1.12 ± 0.15 | surviving fraction (CELECOXIB [18]; 50 nM): 1.14 ± 0.043 | surviving fraction (CELECOXIB [18]; 100 nM): 1.15 ± 0.025 | surviving fraction (CELECOXIB [18]; 500 nM): 1.15 ± 0.074 | surviving fraction (CELECOXIB [18]; 1000 nM): 1.13 ± 0.031
